Test results: PubChem BioAssay AID330 (DTP/NCI, 2004)
Several values for one entry are separate records, joined by “and”; a condition that tells them apart may be missing. Equal entries are not always repeated. Inconclusive results and toxic doses are left out. How the source made its calls: active means survival T/C of 150% or more; inactive means T/C below 125% in these data.

System: P388 leukemia ip, CD2F1 mice, survival T/C
Assay: NCI In Vivo Anticancer Drug Screen. Data for tumor model P388 Leukemia (intraperitoneal) in CD2F1 (CDF1) mice
Conditions: endpoint: median survival time, higher = longer survival
Summary of the method: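 Mice carrying the transplanted tumor received test compound or vehicle. Survival was recorded in each group, and the value is the treated-group measurement divided by that of the vehicle-treated control group.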

[1] = dose: 12.5 mg/kg/injection, schedule: Q01DX009 (ip), vehicle: saline with Tween-80
[2] = dose: 25.0 mg/kg/injection, schedule: Q01DX009 (ip), vehicle: saline with Tween-80
[3] = dose: 50.0 mg/kg/injection, schedule: Q01DX009 (ip), vehicle: saline with Tween-80
[4] = dose: 100.0 mg/kg/injection, schedule: Q01DX009 (ip), vehicle: saline with Tween-80
[5] = dose: 200.0 mg/kg/injection, schedule: Q01DX009 (ip), vehicle: saline with Tween-80
[6] = dose: 60.0 mg/kg/injection, schedule: Q01DX005 (ip), vehicle: Klucel (hydroxypropylcellulose) (HPC)
[7] = dose: 120.0 mg/kg/injection, schedule: Q01DX005 (ip), vehicle: Klucel (hydroxypropylcellulose) (HPC)

Measured: T/C

CC1(CO)CSC(Nc2ccc(Cl)c(Cl)c2)=N1 (configuration not stated)
inactive: dose: 3.12 mg/kg/injection, schedule: Q01DX009 (ip), vehicle: saline with Tween-80 101 % of control | dose: 6.25 mg/kg/injection, schedule: Q01DX009 (ip), vehicle: saline with Tween-80 100 % of control and 98 % of control | [1] 102 % of control | [2] 104 % of control | [3] 100 % of control | [4] 113 % of control | [5] 98 % of control

O=C1CSC(=S)N1c1ccc(Cl)c(C(F)(F)F)c1
inactive: dose: 50.0 mg/kg/injection, schedule: Q01DX009 (ip), vehicle: suspension in saline 108 % of control | dose: 100.0 mg/kg/injection, schedule: Q01DX009 (ip), vehicle: suspension in saline 101 % of control | dose: 200.0 mg/kg/injection, schedule: Q01DX009 (ip), vehicle: suspension in saline 104 % of control

CCCCCCC(=O)/C=C/c1ccc(O)cc1
inactive: [3] 105 % of control | [4] 105 % of control | [5] 105 % of control

CC(=O)OC1C=C2C(=O)OCC2(O)C2(C)CCCC(C)(C)C12 (configuration not stated)
inactive: dose: 3.12 mg/kg/injection, schedule: Q01DX009 (ip), vehicle: other 102 % of control | dose: 6.25 mg/kg/injection, schedule: Q01DX009 (ip), vehicle: other 100 % of control | dose: 12.5 mg/kg/injection, schedule: Q01DX009 (ip), vehicle: other 102 % of control

CCSc1nc(N)c(C(=O)N2CCCCC2)s1
inactive: dose: 50.0 mg/kg/injection, schedule: Q01DX009 (ip), vehicle: Klucel (hydroxypropylcellulose) (HPC) 99 % of control | dose: 100.0 mg/kg/injection, schedule: Q01DX009 (ip), vehicle: Klucel (hydroxypropylcellulose) (HPC) 98 % of control | dose: 200.0 mg/kg/injection, schedule: Q01DX009 (ip), vehicle: Klucel (hydroxypropylcellulose) (HPC) 105 % of control

O=C1CC(SC(=S)N2CCCCC2)C(=O)N1c1ccccc1 (configuration not stated)
inactive: dose: 100.0 mg/kg/injection, schedule: Q04DX002 (ip), vehicle: saline 105 % of control and 98 % of control | dose: 200.0 mg/kg/injection, schedule: Q04DX002 (ip), vehicle: saline 100 % of control and 109 % of control | dose: 400.0 mg/kg/injection, schedule: Q04DX002 (ip), vehicle: saline 100 % of control and 104 % of control

C=C1Cc2cc(OC)c(OC)cc2C(c2cccc(Cl)c2)=NN1C(C)=O
inactive: dose: 60.0 mg/kg/injection, schedule: Q01DX005 (ip), vehicle: saline with Tween-80 95 % of control | dose: 120.0 mg/kg/injection, schedule: Q01DX005 (ip), vehicle: saline with Tween-80 97 % of control | dose: 240.0 mg/kg/injection, schedule: Q01DX005 (ip), vehicle: saline with Tween-80 100 % of control

COC(=O)C1=COC(OC2OC(COC(C)=O)C(OC(C)=O)C(OC(C)=O)C2OC(C)=O)C2C(C)CC(OC(C)=O)C12 (configuration not stated)
inactive: dose: 12.5 mg/kg/injection, schedule: Q01DX005 (ip), vehicle: Klucel (hydroxypropylcellulose) (HPC) 105 % of control | dose: 25.0 mg/kg/injection, schedule: Q01DX005 (ip), vehicle: Klucel (hydroxypropylcellulose) (HPC) 98 % of control | dose: 50.0 mg/kg/injection, schedule: Q01DX005 (ip), vehicle: Klucel (hydroxypropylcellulose) (HPC) 96 % of control

COc1ccc2ccc3c(c2c1)C(=O)CC3
inactive: dose: 12.5 mg/kg/injection, schedule: Q01DX009 (ip), vehicle: distilled water + Tween-80 101 % of control | dose: 25.0 mg/kg/injection, schedule: Q01DX009 (ip), vehicle: distilled water + Tween-80 98 % of control | dose: 50.0 mg/kg/injection, schedule: Q01DX009 (ip), vehicle: distilled water + Tween-80 107 % of control | dose: 100.0 mg/kg/injection, schedule: Q01DX009 (ip), vehicle: distilled water + Tween-80 98 % of control | dose: 200.0 mg/kg/injection, schedule: Q01DX009 (ip), vehicle: distilled water + Tween-80 98 % of control

CCC(=O)OCC1OC(OC2c3cc4c(cc3C(c3cc(OC)c(OC)c(OC)c3)C3C(=O)OCC23)OCO4)C(OC(=O)CC)C(OC(=O)CC)C1OC(=O)CC (configuration not stated)
inactive: dose: 12.5 mg/kg/injection, schedule: Q01DX005 (ip), vehicle: saline with Tween-80 98 % of control | dose: 25.0 mg/kg/injection, schedule: Q01DX005 (ip), vehicle: saline with Tween-80 91 % of control | dose: 50.0 mg/kg/injection, schedule: Q01DX005 (ip), vehicle: saline with Tween-80 88 % of control and 89 % of control

COc1cc2oc3ccccc3c(=O)c2cc1CSc1ccccc1N
inactive: [1] 89 % of control and 96 % of control | [2] 93 % of control and 98 % of control | [3] 92 % of control and 96 % of control | [4] 87 % of control and 89 % of control

COc1cc2c3cc1Oc1c(OC)c(OC)cc4c1[C@@H](Cc1ccc(O)c(c1)Oc1ccc(cc1)C[C@@H]3N(C)CC2)N(C)CC4
inactive: [6] 102 % of control and 106 % of control | [7] 118 % of control and 113 % of control

Cc1ccc(/C=N/N=c2/sc3ccccc3n2CC(=O)O)cc1
inactive: dose: 100.0 mg/kg/injection, schedule: Q01DX001 (ip), vehicle: saline with Tween-80 98 % of control | dose: 200.0 mg/kg/injection, schedule: Q01DX001 (ip), vehicle: saline with Tween-80 92 % of control | dose: 400.0 mg/kg/injection, schedule: Q01DX001 (ip), vehicle: saline with Tween-80 89 % of control

COc1cccc2c1C(=N)c1c(O)c3c(c(O)c1C2=O)CC(O)(C(=O)CO)CC3OC1CC(N2CCOCC2)C(O)C(C)O1 (configuration not stated)
inactive: dose: 0.13 mg/kg/injection, schedule: Q04DX003 (ip), vehicle: water 101 % of control and 104 % of control and 98 % of control | dose: 0.25 mg/kg/injection, schedule: Q04DX003 (ip), vehicle: water 101 % of control and 108 % of control and 116 % of control | dose: 0.5 mg/kg/injection, schedule: Q04DX003 (ip), vehicle: water 104 % of control and 107 % of control | dose: 0.78 mg/kg/injection, schedule: Q04DX003 (ip), vehicle: distilled water + Tween-80 105 % of control | dose: 1.0 mg/kg/injection, schedule: Q04DX003 (ip), vehicle: water 99 % of control and 104 % of control and 107 % of control | dose: 1.56 mg/kg/injection, schedule: Q04DX003 (ip), vehicle: distilled water + Tween-80 101 % of control | dose: 3.12 mg/kg/injection, schedule: Q04DX003 (ip), vehicle: distilled water + Tween-80 99 % of control

S=C(Nc1nccs1)Nc1nccs1
inactive: dose: 3.13 mg/kg/injection, schedule: Q01DX009 (ip), vehicle: Klucel (hydroxypropylcellulose) (HPC) 98 % of control | dose: 6.25 mg/kg/injection, schedule: Q01DX009 (ip), vehicle: Klucel (hydroxypropylcellulose) (HPC) 98 % of control | dose: 12.5 mg/kg/injection, schedule: Q01DX009 (ip), vehicle: Klucel (hydroxypropylcellulose) (HPC) 95 % of control | dose: 25.0 mg/kg/injection, schedule: Q01DX009 (ip), vehicle: Klucel (hydroxypropylcellulose) (HPC) 92 % of control

Cc1noc(C)c1Br
inactive: [3] 97 % of control | [4] 102 % of control | [5] 102 % of control

N#Cc1nnc2cc(-c3ccccc3)nn2c1C1CC1
inactive: [6] 96 % of control | [7] 96 % of control | dose: 240.0 mg/kg/injection, schedule: Q01DX005 (ip), vehicle: Klucel (hydroxypropylcellulose) (HPC) 100 % of control

CNC(=O)n1c(N)nc(-c2ccccc2)c1-c1ccccc1
inactive: dose: 12.5 mg/kg/injection, schedule: Q04DX002 (ip), vehicle: saline with Tween-80 115 % of control | dose: 25.0 mg/kg/injection, schedule: Q04DX002 (ip), vehicle: saline with Tween-80 115 % of control | dose: 50.0 mg/kg/injection, schedule: Q04DX002 (ip), vehicle: saline with Tween-80 117 % of control

COc1ccc(C(O)(CS(C)=O)c2cccs2)cc1 (configuration not stated)
inactive: [1] 94 % of control and 97 % of control | [2] 100 % of control and 102 % of control | [3] 110 % of control and 96 % of control | [4] 91 % of control and 96 % of control

CC1=CC2C(O)(CC3(COC(=O)/C=C/c4ccccc4)OC3C3C4C(C)(C)C4(OC(=O)/C=C/c4ccccc4)C(OC(=O)/C=C/c4ccccc4)C(C)C32O)C1=O (configuration not stated)
inactive: dose: 0.2 mg/kg/injection, schedule: Q01DX005 (ip), vehicle: saline + alcohol 100 % of control | dose: 0.4 mg/kg/injection, schedule: Q01DX005 (ip), vehicle: saline + alcohol 100 % of control | dose: 0.8 mg/kg/injection, schedule: Q01DX005 (ip), vehicle: saline + alcohol 100 % of control | dose: 1.6 mg/kg/injection, schedule: Q01DX005 (ip), vehicle: saline + alcohol 98 % of control | dose: 3.2 mg/kg/injection, schedule: Q01DX005 (ip), vehicle: saline + alcohol 104 % of control

COC(=O)C1=CN(CCc2ccc(O)cc2)C(=O)C2C1CC(O)C2C (configuration not stated)
inactive: dose: 7.5 mg/kg/injection, schedule: Q01DX005 (ip), vehicle: saline with Tween-80 99 % of control | dose: 15.0 mg/kg/injection, schedule: Q01DX005 (ip), vehicle: saline with Tween-80 93 % of control | dose: 30.0 mg/kg/injection, schedule: Q01DX005 (ip), vehicle: saline with Tween-80 94 % of control
